The subject of one assay is LU99A. The assay can be described thus: relative viability (nuclei count vs DMSO), 5 days (fraction); higher = more cells survive. The note with it: first compound 2.53 µM. In a few lines: (§1)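 Relative viability equals treated-well nuclei counts divided by vehicle-well nuclei counts. Counts came from 4× images of lung cancer cell lines grown in 1536-well plates for 5 days after pin-tool dosing on the day after seeding. Dosing used one drug alone or a fixed anchor-drug dose plus five library-drug doses (not always all listed) in √10 steps, and values are medians of duplicate plates.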
In turn, `CCCCCCCCCCCC1=C(O)C(=O)C=C(O)C1=O` [Embelin] + O=C(CCCCCCC(=O)Nc1ccccc1)NO [Vorinostat] (partner 1 µM) came in with a relative viability of 0.586.
Still for that read-out and setting: under `CCCCCCCCCCCC1=C(O)C(=O)C=C(O)C1=O` [Embelin] + Cc1cc(Nc2cc(N3CCN(C)CC3)nc(Sc3ccc(NC(=O)C4CC4)cc3)n2)n[nH]1 [Tozasertib] (partner 0.1 µM) stands 0.277; under `CCCCCCCCCCCC1=C(O)C(=O)C=C(O)C1=O` [Embelin] + COc1cc2c(Oc3ccc(NC(=O)C4(C(=O)Nc5ccc(F)cc5)CC4)cc3F)ccnc2cc1OCCCN1CCOCC1 [Foretinib] (partner 0.25 µM), 0.864.
In turn, `CCCCCCCCCCCC1=C(O)C(=O)C=C(O)C1=O` [Embelin] + CS(=O)(=O)N1CCN(Cc2cc3nc(-c4cccc5[nH]ncc45)nc(N4CCOCC4)c3s2)CC1 [Pictilisib] (partner 1 µM) gave a relative viability of 0.357.
Still for that read-out and setting: the same measure for `CCCCCCCCCCCC1=C(O)C(=O)C=C(O)C1=O` [Embelin] + C[C@@H](Oc1cc(-c2cnn(C3CCNCC3)c2)cnc1N)c1c(Cl)ccc(F)c1Cl [Crizotinib] (partner 1 µM): 0.55.

Staying with this assay, now noted: first compound 8 µM.
Compound `CCCCCCCCCCCC1=C(O)C(=O)C=C(O)C1=O` [Embelin] + O=C(CCCCCCC(=O)Nc1ccccc1)NO [Vorinostat] (partner 1 µM) gave a relative viability of 0.336.
Turning to `CCCCCCCCCCCC1=C(O)C(=O)C=C(O)C1=O` [Embelin] + Cc1cc(Nc2cc(N3CCN(C)CC3)nc(Sc3ccc(NC(=O)C4CC4)cc3)n2)n[nH]1 [Tozasertib] (partner 0.1 µM), the relative viability was 0.264.
On the same count and under the same terms, the same measure for `CCCCCCCCCCCC1=C(O)C(=O)C=C(O)C1=O` [Embelin] + COc1cc2c(Oc3ccc(NC(=O)C4(C(=O)Nc5ccc(F)cc5)CC4)cc3F)ccnc2cc1OCCCN1CCOCC1 [Foretinib] (partner 0.25 µM): 0.766; for `CCCCCCCCCCCC1=C(O)C(=O)C=C(O)C1=O` [Embelin] + CS(=O)(=O)N1CCN(Cc2cc3nc(-c4cccc5[nH]ncc45)nc(N4CCOCC4)c3s2)CC1 [Pictilisib] (partner 1 µM): 0.281.
Still for that read-out and setting: under `CCCCCCCCCCCC1=C(O)C(=O)C=C(O)C1=O` [Embelin] + C[C@@H](Oc1cc(-c2cnn(C3CCNCC3)c2)cnc1N)c1c(Cl)ccc(F)c1Cl [Crizotinib] (partner 1 µM) stands 0.606.

The next assay has as its system NCI-H2228. The assay is described as above. The conditions noted are these: first compound 0.08 µM. In a few lines:
as §1
`CCCCCCCCCCCC1=C(O)C(=O)C=C(O)C1=O` [Embelin] + O=C(CCCCCCC(=O)Nc1ccccc1)NO [Vorinostat] (partner 1 µM) showed a relative viability of 0.407.
For `CCCCCCCCCCCC1=C(O)C(=O)C=C(O)C1=O` [Embelin] + Cc1cc(Nc2cc(N3CCN(C)CC3)nc(Sc3ccc(NC(=O)C4CC4)cc3)n2)n[nH]1 [Tozasertib] (partner 0.1 µM), the relative viability was found to be 0.269.
Same read-out and setting: the same measure for `CCCCCCCCCCCC1=C(O)C(=O)C=C(O)C1=O` [Embelin] + COc1cc2c(Oc3ccc(NC(=O)C4(C(=O)Nc5ccc(F)cc5)CC4)cc3F)ccnc2cc1OCCCN1CCOCC1 [Foretinib] (partner 0.25 µM): 1.08.
Still for that read-out and setting: the same measure for `CCCCCCCCCCCC1=C(O)C(=O)C=C(O)C1=O` [Embelin] + CS(=O)(=O)N1CCN(Cc2cc3nc(-c4cccc5[nH]ncc45)nc(N4CCOCC4)c3s2)CC1 [Pictilisib] (partner 1 µM): 0.476.
Still for that read-out and setting: under `CCCCCCCCCCCC1=C(O)C(=O)C=C(O)C1=O` [Embelin] + C[C@@H](Oc1cc(-c2cnn(C3CCNCC3)c2)cnc1N)c1c(Cl)ccc(F)c1Cl [Crizotinib] (partner 1 µM) stands 0.437.

The assay is the same for the next values; noted with them: first compound 0.8 µM.
`CCCCCCCCCCCC1=C(O)C(=O)C=C(O)C1=O` [Embelin] + O=C(CCCCCCC(=O)Nc1ccccc1)NO [Vorinostat] (partner 1 µM): the relative viability turned out to be 0.819.
On to `CCCCCCCCCCCC1=C(O)C(=O)C=C(O)C1=O` [Embelin] + Cc1cc(Nc2cc(N3CCN(C)CC3)nc(Sc3ccc(NC(=O)C4CC4)cc3)n2)n[nH]1 [Tozasertib] (partner 0.1 µM), for which the relative viability was 0.247.
Still for that read-out and setting: the same measure for `CCCCCCCCCCCC1=C(O)C(=O)C=C(O)C1=O` [Embelin] + COc1cc2c(Oc3ccc(NC(=O)C4(C(=O)Nc5ccc(F)cc5)CC4)cc3F)ccnc2cc1OCCCN1CCOCC1 [Foretinib] (partner 0.25 µM): 0.868; for `CCCCCCCCCCCC1=C(O)C(=O)C=C(O)C1=O` [Embelin] + CS(=O)(=O)N1CCN(Cc2cc3nc(-c4cccc5[nH]ncc45)nc(N4CCOCC4)c3s2)CC1 [Pictilisib] (partner 1 µM): 0.375.
Still for that read-out and setting: under `CCCCCCCCCCCC1=C(O)C(=O)C=C(O)C1=O` [Embelin] + C[C@@H](Oc1cc(-c2cnn(C3CCNCC3)c2)cnc1N)c1c(Cl)ccc(F)c1Cl [Crizotinib] (partner 1 µM) stands 0.579.

Still in this assay, the particulars now being: first compound 2.53 µM.
`CCCCCCCCCCCC1=C(O)C(=O)C=C(O)C1=O` [Embelin] + O=C(CCCCCCC(=O)Nc1ccccc1)NO [Vorinostat] (partner 1 µM) displayed a relative viability of 0.36.
Still for that read-out and setting: under `CCCCCCCCCCCC1=C(O)C(=O)C=C(O)C1=O` [Embelin] + Cc1cc(Nc2cc(N3CCN(C)CC3)nc(Sc3ccc(NC(=O)C4CC4)cc3)n2)n[nH]1 [Tozasertib] (partner 0.1 µM) stands 0.309; under `CCCCCCCCCCCC1=C(O)C(=O)C=C(O)C1=O` [Embelin] + COc1cc2c(Oc3ccc(NC(=O)C4(C(=O)Nc5ccc(F)cc5)CC4)cc3F)ccnc2cc1OCCCN1CCOCC1 [Foretinib] (partner 0.25 µM), 1.32; under `CCCCCCCCCCCC1=C(O)C(=O)C=C(O)C1=O` [Embelin] + CS(=O)(=O)N1CCN(Cc2cc3nc(-c4cccc5[nH]ncc45)nc(N4CCOCC4)c3s2)CC1 [Pictilisib] (partner 1 µM), 0.457.
The same measure, in the same setting: under `CCCCCCCCCCCC1=C(O)C(=O)C=C(O)C1=O` [Embelin] + C[C@@H](Oc1cc(-c2cnn(C3CCNCC3)c2)cnc1N)c1c(Cl)ccc(F)c1Cl [Crizotinib] (partner 1 µM) stands 0.431.

Staying with this assay, now noted: first compound 8 µM.
The compound `CCCCCCCCCCCC1=C(O)C(=O)C=C(O)C1=O` [Embelin] + O=C(CCCCCCC(=O)Nc1ccccc1)NO [Vorinostat] (partner 1 µM) returned a relative viability of 0.85.
On the same count and under the same terms, the same measure for `CCCCCCCCCCCC1=C(O)C(=O)C=C(O)C1=O` [Embelin] + Cc1cc(Nc2cc(N3CCN(C)CC3)nc(Sc3ccc(NC(=O)C4CC4)cc3)n2)n[nH]1 [Tozasertib] (partner 0.1 µM): 0.238; for `CCCCCCCCCCCC1=C(O)C(=O)C=C(O)C1=O` [Embelin] + COc1cc2c(Oc3ccc(NC(=O)C4(C(=O)Nc5ccc(F)cc5)CC4)cc3F)ccnc2cc1OCCCN1CCOCC1 [Foretinib] (partner 0.25 µM): 0.996.
In turn, `CCCCCCCCCCCC1=C(O)C(=O)C=C(O)C1=O` [Embelin] + CS(=O)(=O)N1CCN(Cc2cc3nc(-c4cccc5[nH]ncc45)nc(N4CCOCC4)c3s2)CC1 [Pictilisib] (partner 1 µM) gave a relative viability of 0.366.
Still for that read-out and setting: under `CCCCCCCCCCCC1=C(O)C(=O)C=C(O)C1=O` [Embelin] + C[C@@H](Oc1cc(-c2cnn(C3CCNCC3)c2)cnc1N)c1c(Cl)ccc(F)c1Cl [Crizotinib] (partner 1 µM) stands 0.426.

The record behind these values is the supplement of paper PMC10307832.
